Measurements as given in the kinase profiling compilation of Christmann-Franck et al. (2016).

How the values were obtained:
Test in all cases: radiometric filter-binding kinase assay, Kinase HotSpot
Settings in all cases: compound 0.5 µM; ATP 10 µM
[1] = target: GRK5 (human) (UniProt P34947)
[2] = target: PRKCI (human) (UniProt P41743)
[3] = target: NEK3 (human) (UniProt P51956)
[4] = target: DMPK (human) (UniProt Q09013)
[5] = target: MAPK8 (human) (UniProt P45983)
[6] = target: RAF1 (human) (UniProt P04049)
[7] = target: PLK2 (human) (UniProt Q9NYY3)
Sequence of PLK2 (human) (Q9NYY3 whole entry, looked up): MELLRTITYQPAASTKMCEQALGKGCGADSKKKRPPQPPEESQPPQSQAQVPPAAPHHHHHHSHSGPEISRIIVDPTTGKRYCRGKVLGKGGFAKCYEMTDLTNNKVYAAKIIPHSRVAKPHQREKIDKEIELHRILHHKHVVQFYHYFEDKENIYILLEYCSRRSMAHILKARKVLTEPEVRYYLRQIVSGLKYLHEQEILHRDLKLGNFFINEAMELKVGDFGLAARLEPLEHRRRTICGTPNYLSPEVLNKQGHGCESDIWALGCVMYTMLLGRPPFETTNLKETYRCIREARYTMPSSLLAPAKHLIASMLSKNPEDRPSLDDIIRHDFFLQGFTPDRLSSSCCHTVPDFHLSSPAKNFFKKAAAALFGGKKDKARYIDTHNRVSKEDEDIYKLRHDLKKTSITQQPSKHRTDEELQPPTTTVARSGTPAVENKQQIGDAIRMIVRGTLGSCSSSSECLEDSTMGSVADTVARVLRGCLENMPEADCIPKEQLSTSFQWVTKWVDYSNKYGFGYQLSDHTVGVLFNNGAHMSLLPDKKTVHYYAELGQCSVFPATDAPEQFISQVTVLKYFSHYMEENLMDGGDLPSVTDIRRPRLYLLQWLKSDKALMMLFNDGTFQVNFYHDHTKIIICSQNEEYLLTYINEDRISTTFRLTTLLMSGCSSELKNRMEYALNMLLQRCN

[8] = target: CDK7 CCNH MNAT1 (human) (UniProt P50613+P51948+P51946)
[9] = target: AURKC (human) (UniProt Q9UQB9)
[10] = target: ABL1 (human) (UniProt P00519)
[11] = target: MST4 (human) (UniProt Q9P289)
[12] = target: RPS6KB1 (human) (UniProt P23443)
[13] = target: SRPK1 (human) (UniProt Q96SB4)
[14] = target: PAK6 (human) (UniProt Q9NQU5)
Sequence of PAK6 (human) (Q9NQU5 whole entry, looked up): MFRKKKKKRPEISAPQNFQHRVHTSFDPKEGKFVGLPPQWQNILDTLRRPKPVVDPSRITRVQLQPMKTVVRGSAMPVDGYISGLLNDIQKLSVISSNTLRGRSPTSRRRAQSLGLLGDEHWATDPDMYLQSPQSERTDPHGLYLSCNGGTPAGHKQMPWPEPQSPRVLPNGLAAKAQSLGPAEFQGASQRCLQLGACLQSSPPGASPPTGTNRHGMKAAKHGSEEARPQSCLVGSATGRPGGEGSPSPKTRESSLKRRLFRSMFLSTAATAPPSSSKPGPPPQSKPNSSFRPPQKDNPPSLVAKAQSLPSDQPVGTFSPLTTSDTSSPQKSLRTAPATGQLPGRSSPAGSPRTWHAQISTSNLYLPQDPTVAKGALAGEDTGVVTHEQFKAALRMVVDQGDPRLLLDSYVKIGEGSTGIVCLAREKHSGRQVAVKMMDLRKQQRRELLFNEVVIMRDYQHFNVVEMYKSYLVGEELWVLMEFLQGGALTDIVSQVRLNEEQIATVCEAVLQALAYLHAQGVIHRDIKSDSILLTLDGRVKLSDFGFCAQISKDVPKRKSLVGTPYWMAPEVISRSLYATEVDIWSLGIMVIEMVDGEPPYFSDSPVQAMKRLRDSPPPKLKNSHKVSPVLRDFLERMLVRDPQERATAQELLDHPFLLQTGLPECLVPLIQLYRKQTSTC

[15] = target: ROS1 (human) (UniProt P08922)
[16] = target: RIPK2 (human) (UniProt O43353)
[17] = target: BTK (human) (UniProt Q06187)
[18] = target: MAP3K9 (human) (UniProt P80192)
[19] = target: MAP4K4 (human) (UniProt O95819)
[20] = target: DYRK1A (human) (UniProt Q13627)
[21] = target: INSRR (human) (UniProt P14616)
[22] = target: BLK (human) (UniProt P51451)
[23] = target: KDR (human) (UniProt P35968)
[24] = target: GRK6 (human) (UniProt P43250)
Sequence of GRK6 (human) (P43250 whole entry, looked up): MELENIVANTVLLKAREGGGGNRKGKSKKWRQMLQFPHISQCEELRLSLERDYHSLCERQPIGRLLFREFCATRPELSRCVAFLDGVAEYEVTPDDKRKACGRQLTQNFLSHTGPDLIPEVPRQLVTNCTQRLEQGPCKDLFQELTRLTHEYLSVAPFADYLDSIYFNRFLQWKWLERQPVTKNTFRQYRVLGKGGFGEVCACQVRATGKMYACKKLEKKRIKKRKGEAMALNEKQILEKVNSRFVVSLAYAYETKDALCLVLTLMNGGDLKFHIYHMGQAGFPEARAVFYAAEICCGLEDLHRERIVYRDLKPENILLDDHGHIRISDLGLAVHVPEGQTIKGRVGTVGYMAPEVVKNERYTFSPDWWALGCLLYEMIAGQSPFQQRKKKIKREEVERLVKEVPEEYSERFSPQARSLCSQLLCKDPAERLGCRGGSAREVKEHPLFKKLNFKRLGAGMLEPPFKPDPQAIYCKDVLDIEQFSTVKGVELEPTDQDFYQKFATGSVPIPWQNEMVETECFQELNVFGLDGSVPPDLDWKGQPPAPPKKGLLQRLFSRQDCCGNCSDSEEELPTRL

[25] = target: CDK1 CCNB1 (human) (UniProt P06493+P14635)
[26] = target: FLT1 (human) (UniProt P17948)
[27] = target: CSNK1G3 (human) (UniProt Q9Y6M4)
[28] = target: PIM2 (human) (UniProt Q9P1W9)
[29] = target: CDK3 CCNE1 (human) (UniProt Q00526+P24864)
Sequence of CDK3 CCNE1 (human) (P24864 whole entry, looked up): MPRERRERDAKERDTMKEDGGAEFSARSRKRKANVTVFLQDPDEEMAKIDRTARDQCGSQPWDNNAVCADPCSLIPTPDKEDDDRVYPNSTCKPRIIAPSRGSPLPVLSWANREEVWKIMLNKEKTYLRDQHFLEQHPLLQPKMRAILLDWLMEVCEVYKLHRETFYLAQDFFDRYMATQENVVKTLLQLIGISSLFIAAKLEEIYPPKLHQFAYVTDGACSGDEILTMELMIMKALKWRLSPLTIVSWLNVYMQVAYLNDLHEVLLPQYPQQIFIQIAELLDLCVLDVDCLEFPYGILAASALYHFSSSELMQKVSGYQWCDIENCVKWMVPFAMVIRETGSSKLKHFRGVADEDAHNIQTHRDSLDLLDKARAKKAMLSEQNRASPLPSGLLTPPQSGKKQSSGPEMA
Sequence of CDK3 CCNE1 (human) (Q00526 whole entry, looked up): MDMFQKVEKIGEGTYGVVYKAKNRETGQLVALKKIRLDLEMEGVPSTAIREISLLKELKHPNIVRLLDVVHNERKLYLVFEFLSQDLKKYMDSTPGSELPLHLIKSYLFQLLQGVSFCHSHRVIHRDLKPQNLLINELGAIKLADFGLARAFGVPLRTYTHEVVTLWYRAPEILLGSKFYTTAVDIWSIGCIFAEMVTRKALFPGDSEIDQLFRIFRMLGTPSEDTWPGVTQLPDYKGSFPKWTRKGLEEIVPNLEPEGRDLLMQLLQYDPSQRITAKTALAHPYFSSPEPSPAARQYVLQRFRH

[30] = target: EPHA1 (human) (UniProt P21709)
[31] = target: CSNK1G2 (human) (UniProt P78368)
[32] = target: STK10 (human) (UniProt O94804)
Sequence of STK10 (human) (O94804 whole entry, looked up): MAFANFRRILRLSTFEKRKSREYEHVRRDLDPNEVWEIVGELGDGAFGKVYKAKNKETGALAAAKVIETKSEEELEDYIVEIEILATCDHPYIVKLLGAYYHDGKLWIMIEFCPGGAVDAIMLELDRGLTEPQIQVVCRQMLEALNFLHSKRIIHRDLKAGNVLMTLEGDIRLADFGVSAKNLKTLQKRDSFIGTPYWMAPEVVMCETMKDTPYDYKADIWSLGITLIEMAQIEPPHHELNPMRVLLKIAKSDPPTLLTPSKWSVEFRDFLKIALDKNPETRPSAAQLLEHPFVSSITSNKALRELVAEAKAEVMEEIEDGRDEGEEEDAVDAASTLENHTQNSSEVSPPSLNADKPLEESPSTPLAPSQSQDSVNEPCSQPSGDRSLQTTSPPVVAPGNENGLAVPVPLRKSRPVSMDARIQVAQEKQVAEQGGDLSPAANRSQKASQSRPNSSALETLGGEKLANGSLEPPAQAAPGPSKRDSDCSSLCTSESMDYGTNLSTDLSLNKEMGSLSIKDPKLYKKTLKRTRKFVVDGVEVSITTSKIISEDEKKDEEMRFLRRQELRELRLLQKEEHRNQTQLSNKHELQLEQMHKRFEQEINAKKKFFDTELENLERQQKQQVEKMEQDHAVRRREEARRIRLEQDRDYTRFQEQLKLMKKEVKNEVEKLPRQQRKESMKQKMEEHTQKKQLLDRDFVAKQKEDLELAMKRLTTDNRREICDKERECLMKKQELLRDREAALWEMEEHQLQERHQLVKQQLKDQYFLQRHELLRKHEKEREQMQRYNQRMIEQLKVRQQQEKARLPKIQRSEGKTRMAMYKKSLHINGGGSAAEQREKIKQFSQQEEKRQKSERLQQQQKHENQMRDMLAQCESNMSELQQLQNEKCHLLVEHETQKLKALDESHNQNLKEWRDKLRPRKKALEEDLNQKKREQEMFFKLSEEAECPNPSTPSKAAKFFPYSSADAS

[33] = target: FES (human) (UniProt P07332)
[34] = target: LTK (human) (UniProt P29376)
[35] = target: MAP3K5 (human) (UniProt Q99683)
[36] = target: LRRK2 (human) (UniProt Q5S007)
[37] = target: BMX (human) (UniProt P51813)
[38] = target: TSSK1B (human) (UniProt Q9BXA7)
Sequence of TSSK1B (human) (Q9BXA7 whole entry, looked up): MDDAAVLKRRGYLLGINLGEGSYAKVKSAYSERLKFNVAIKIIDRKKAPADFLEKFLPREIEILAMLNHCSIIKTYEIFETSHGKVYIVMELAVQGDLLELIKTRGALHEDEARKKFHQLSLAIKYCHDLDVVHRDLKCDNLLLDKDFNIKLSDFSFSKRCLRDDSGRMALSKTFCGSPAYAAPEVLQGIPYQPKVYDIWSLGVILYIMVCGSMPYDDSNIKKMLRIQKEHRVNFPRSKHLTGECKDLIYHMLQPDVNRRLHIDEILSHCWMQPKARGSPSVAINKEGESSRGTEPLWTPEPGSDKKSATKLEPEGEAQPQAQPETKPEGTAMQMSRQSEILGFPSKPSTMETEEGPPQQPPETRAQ

[39] = target: DYRK4 (human) (UniProt Q9NR20)
[40] = target: NEK4 (human) (UniProt P51957)
[41] = target: TAOK3 (human) (UniProt Q9H2K8)
Sequence of TAOK3 (human) (Q9H2K8 whole entry, looked up): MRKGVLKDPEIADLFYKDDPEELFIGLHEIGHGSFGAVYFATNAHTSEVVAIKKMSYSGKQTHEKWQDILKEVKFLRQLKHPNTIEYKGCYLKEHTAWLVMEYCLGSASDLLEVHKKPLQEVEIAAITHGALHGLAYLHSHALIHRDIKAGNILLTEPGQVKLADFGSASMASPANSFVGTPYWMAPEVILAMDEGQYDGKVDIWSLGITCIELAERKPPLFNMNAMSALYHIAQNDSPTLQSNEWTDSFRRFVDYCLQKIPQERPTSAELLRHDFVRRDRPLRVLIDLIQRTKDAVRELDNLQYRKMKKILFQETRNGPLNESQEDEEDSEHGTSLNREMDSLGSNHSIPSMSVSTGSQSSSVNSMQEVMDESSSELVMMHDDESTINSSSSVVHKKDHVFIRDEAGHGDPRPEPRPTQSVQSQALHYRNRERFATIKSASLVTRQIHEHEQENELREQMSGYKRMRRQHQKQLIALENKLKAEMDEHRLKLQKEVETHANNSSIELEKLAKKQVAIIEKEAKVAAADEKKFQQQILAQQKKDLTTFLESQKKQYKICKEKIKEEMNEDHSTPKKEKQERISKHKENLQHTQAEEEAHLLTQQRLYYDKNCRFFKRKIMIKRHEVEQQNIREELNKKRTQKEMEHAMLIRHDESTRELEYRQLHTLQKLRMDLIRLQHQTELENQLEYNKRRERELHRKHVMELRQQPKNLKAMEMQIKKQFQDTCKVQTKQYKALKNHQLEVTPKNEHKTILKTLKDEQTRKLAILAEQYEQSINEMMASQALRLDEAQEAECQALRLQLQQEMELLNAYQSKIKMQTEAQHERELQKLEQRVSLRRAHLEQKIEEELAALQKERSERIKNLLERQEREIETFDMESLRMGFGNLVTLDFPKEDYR

[42] = target: IGF1R (human) (UniProt P08069)

Q: How did the residual activity [1] turn out when O=c1cc(N2CCOCC2)oc2c1ccc1ccccc12 was run?
A: 106%

Q: And the residual activity [2]?
A: 95.5%

Q: And the residual activity [3]?
A: 111%

Q: And the residual activity [4]?
A: 105%

Q: What about the residual activity [5] of the same compound?
A: 97.2%

Q: What about the residual activity [6] of the same compound?
A: 97.9%

Q: What about the residual activity [7] of the same compound?
A: 106%

Q: And the residual activity [8]?
A: 98.2%

Q: What about the residual activity [9] of the same compound?
A: 107%

Q: What about the residual activity [10] of the same compound?
A: 104%

Q: What about the residual activity [11] of the same compound?
A: 93.2%

Q: What about the residual activity [12] of the same compound?
A: 99.3%

Q: What about the residual activity [13] of the same compound?
A: 90.9%

Q: What about the residual activity [14] of the same compound?
A: 92%

Q: And the residual activity [15]?
A: 97%

Q: And the residual activity [16]?
A: 104%

Q: And the residual activity [17]?
A: 112%

Q: What about the residual activity [18] of the same compound?
A: 111%

Q: And the residual activity [19]?
A: 89.3%

Q: And the residual activity [20]?
A: 79%

Q: What about the residual activity [21] of the same compound?
A: 97.4%

Q: And the residual activity [22]?
A: 104%

Q: And the residual activity [23]?
A: 86.8%

Q: What about the residual activity [24] of the same compound?
A: 93.8%

Q: And the residual activity [25]?
A: 85.5%

Q: What about the residual activity [26] of the same compound?
A: 95.5%

Q: What about the residual activity [27] of the same compound?
A: 98.1%

Q: What about the residual activity [28] of the same compound?
A: 78.8%

Q: And the residual activity [29]?
A: 102%

Q: What about the residual activity [30] of the same compound?
A: 94.2%

Q: What about the residual activity [31] of the same compound?
A: 102%

Q: And the residual activity [32]?
A: 96.9%

Q: And the residual activity [33]?
A: 100%

Q: What about the residual activity [34] of the same compound?
A: 101%

Q: What about the residual activity [35] of the same compound?
A: 98.2%

Q: And the residual activity [36]?
A: 96.9%

Q: What about the residual activity [37] of the same compound?
A: 92.7%

Q: What about the residual activity [38] of the same compound?
A: 101%

Q: And the residual activity [39]?
A: 91.9%

Q: And the residual activity [40]?
A: 97.4%

Q: And the residual activity [41]?
A: 98.7%

Q: With COc1ccc(COc2ccc(Cc3cnc(N)nc3N)cc2OC)cc1 as the compound, how does the residual activity [1] read?
A: 109%

Q: And the residual activity [2]?
A: 91.6%

Q: And the residual activity [3]?
A: 98.1%

Q: What about the residual activity [4] of the same compound?
A: 101%

Q: What about the residual activity [5] of the same compound?
A: 91.9%

Q: What about the residual activity [7] of the same compound?
A: 116%

Q: What about the residual activity [8] of the same compound?
A: 100%

Q: And the residual activity [9]?
A: 97.5%

Q: And the residual activity [10]?
A: 102%

Q: What about the residual activity [11] of the same compound?
A: 95.5%

Q: And the residual activity [12]?
A: 89.5%

Q: And the residual activity [13]?
A: 90.4%

Q: And the residual activity [14]?
A: 94.9%

Q: What about the residual activity [15] of the same compound?
A: 99.9%

Q: And the residual activity [16]?
A: 81.9%

Q: And the residual activity [42]?
A: 123%

Q: And the residual activity [17]?
A: 104%

Q: What about the residual activity [18] of the same compound?
A: 105%

Q: And the residual activity [19]?
A: 99%

Q: What about the residual activity [20] of the same compound?
A: 88.1%

Q: And the residual activity [21]?
A: 99.4%

Q: And the residual activity [22]?
A: 98.6%

Q: And the residual activity [23]?
A: 109%

Q: And the residual activity [24]?
A: 99.8%

Q: And the residual activity [25]?
A: 91.3%

Q: What about the residual activity [26] of the same compound?
A: 99.7%

Q: And the residual activity [28]?
A: 107%

Q: And the residual activity [29]?
A: 82.9%

Q: What about the residual activity [30] of the same compound?
A: 85.7%

Q: What about the residual activity [31] of the same compound?
A: 101%

Q: And the residual activity [32]?
A: 100%

Q: What about the residual activity [34] of the same compound?
A: 100%

Q: And the residual activity [35]?
A: 89%

Q: And the residual activity [36]?
A: 92.6%

Q: And the residual activity [37]?
A: 93.4%

Q: What about the residual activity [38] of the same compound?
A: 95.2%

Q: And the residual activity [39]?
A: 101%

Q: What about the residual activity [40] of the same compound?
A: 92.2%

Q: And the residual activity [41]?
A: 102%

Q: Which results are given for c1ccc(-c2n[nH]cc2-c2ccnc3ccccc23)nc1?
A: residual activity [1]: 109%; residual activity [2]: 99%; residual activity [3]: 90.2%; residual activity [4]: 106%; residual activity [6]: 89.5%; residual activity [7]: 98.9%; residual activity [8]: 104%; residual activity [9]: 100%; residual activity [10]: 77.1%; residual activity [11]: 83.4%; residual activity [12]: 106%; residual activity [13]: 98.4%; residual activity [14]: 106%; residual activity [15]: 102%; residual activity [16]: 64.7%; residual activity [42]: 102%; residual activity [17]: 104%; residual activity [18]: 90.4%; residual activity [19]: 48.3%; residual activity [20]: 90.9%; residual activity [21]: 101%; residual activity [22]: 99.9%; residual activity [23]: 103%; residual activity [24]: 94.6%; residual activity [25]: 106%; residual activity [26]: 81.4%; residual activity [27]: 96%; residual activity [28]: 115%; residual activity [29]: 94.2%; residual activity [30]: 97.7%; residual activity [31]: 103%; residual activity [32]: 90.1%; residual activity [33]: 111%; residual activity [34]: 92.8%; residual activity [35]: 105%; residual activity [36]: 93.7%; residual activity [37]: 89.2%; residual activity [38]: 104%; residual activity [39]: 104%; residual activity [40]: 95.8%; residual activity [41]: 92.8%
